For experiment [1], the system named is Anti-BCMA CAR-expressing T cells. Description: ATAC-seq chromatin accessibility in stimulated anti-BCMA CAR T cells in the presence or absence of lenalidomide. Type of experiment: cell-based. As for the experimental part:
(§1) Anti-BCMA CAR-expressing T cells, generated from four (4) different independent donors, were stimulated with 50 μg/mL BCMA-conjugated beads for 24 hours (24 hr+stim) or 7 days (d7+stim), or cultured without stimulation for 24 hours (24 hr), in the presence or absence of lenalidomide. The CAR-expressing cells were assessed by RNA sequencing (RNA-seq) for gene expression and assayed for transposase-accessible chromatin using sequencing (ATAC-seq) for chromatin accessibility analysis.
(§2) RNA-seq was performed on the complementary DNA (cDNA) samples prepared from the RNA isolated from the cultured anti-BCMA CAR-expressing cells. ATAC-seq was performed generally as described in Buenrostro et al., Nat Methods. (2013) 10(12): 1213-1218. […]
(§3) Principal component analysis (PCA) was performed for the RNA-seq and ATAC-seq data sets, generated from DESeq2-normalized counts. Differential expression (DE, for RNA-seq) or consensus peak accessibility (DA, for ATAC-seq) were calculated, modeling donor effects (Donors 1-4) and treatment effects (lenalidomide vs. vehicle) at 24 hours and day 7. […] Gene ontology (GO) enrichment analysis was performed and activation z-score was determined on the subset of genes differentially expressed at q≤0.1 using Ingenuity Pathway Analysis software (Qiagen, Inc.), accounting for donor effects within each treatment condition.

Experiment [2] has the same test system. Description: RNA-seq gene expression in stimulated anti-BCMA CAR T cells in the presence or absence of lenalidomide. Type of experiment: cell-based. As for the experimental part: as §1, §2, §3

The record followed here is patent publication US11821027B2, “Epigenetic analysis of cell therapy and related methods” (Juno Therapeutics, Inc., priority 2017, dated 2023).

Each structure is given as a SMILES string.

Consider `Nc1cccc2c1CN(C1CCC(=O)NC1=O)C2=O` (stereo not shown) [lenalidomide], for which the “chromatin accessibility peaks changed” value in experiment [1] (7 days of culture with BCMA-conjugated bead stimulation, lenalidomide vs. vehicle, 4 donors, cut off q≤0.1) is 2804 peaks. Further, the “motif enrichment analysis of peaks (transcription factor binding motifs of T cell activation and signaling)” value in experiment [1] (day 7 cultures with stimulation, HOMER, consensus peakset as background) was “enriched in peaks with increased accessibility”. The “effect on biological signaling pathways (differentially expressed genes)” value in experiment [2] (24 hours or 7 days with stimulation, Ingenuity Pathway Analysis) was “increased expression of genes involved in T cell activation and signaling”. In addition, the “total genes altered as shown by gene expression changes” value in experiment [2] (7 days of culture with BCMA-conjugated bead stimulation, lenalidomide vs. vehicle, 4 donors, cut off q≤0.05 and log 2 fold change≥0.5) is recorded as 583 genes.
